Data: US20060166892A1, “Treatment of cell proliferative disorders with chlorotoxin” (priority 2002, published 2006)
Where two headings read alike, the source gives them in different places. Ends that are not written are not given here. * marks the point of attachment. Biotin = O=C1N[C@H]2[C@H](CS[C@H]2CCCCC(=O)*)N1

What was measured:
[1] = tested on: PC3 prostate cancer cells; assay: Binding of biotinylated peptides to PC3 cells, HRP-avidin detection; parameters: species or system human; conditions: chlorotoxin binding assay, FIG. 11
Experimental: To identify core binding site sequences of chlorotoxin, twenty-seven overlapping 10-mers derived from SEQ 1) NO: 1 were synthesized, starting from the C-terminus of the peptide as indicated in FIG. 7.
Binding of the 10-mer peptides to PC3 prostate cancer cells in vitro was measured by incubating cultured PC3 cells with individual peptides. Binding was detected and quantified by incubating the peptide exposed cells with HRP-avidin using a commercial kit according to manufacturer's instructions.
(SEQ ID NO: 10) sequentially as depicted in Table 5.
In order to compare binding of the short scorpion toxins, the regions homologous to peptide 21 of small toxin and probable toxin LQH-8/6 were synthesized and biotinylated for analysis in the chlorotoxin binding assay. (See Table 6 for amino acid sequences of the peptides).

[2] = tested on: D54MG Glioblastoma cells; conditions: 24 h
Experimental: The purpose of this experiment was to determine if the proliferation D54MG Glioblastoma cells, as measured by ^3H-thymidine uptake, is effected by Peptide 21, a segment of the full chlorotoxin sequence. The sequence of peptide 21 and its relation to chlorotoxin is shown in the sequence below:
D54MG cells were plated in a 24 well plate at 100,000 cells/ml/well using five rows of four wells for each concentration. The cells were allowed to adhere in normal media for twenty-four hours at 37° C. and 5% carbon dioxide. TM-701 was diluted to a […] stock solution and added to each row at the concentrations of 0, 20, 80, 160 and 320 nM.
The cells and peptide 21 were allowed to incubate for 24 hours at 37° C. and 5% carbon dioxide. After twenty-four hours, the cells were rinsed two times with warm PBS. Normal media was added back to the cells at 1 ml/well. One μCi of ^3H-thymidine was added to each well (1 μl of 1 mCi/ml ^3H-thymidine to each well). The plate was incubated for two hours at 37° C. The media and thymidine were removed and the wells were rinsed with ice-cold phosphate-buffered saline three times. To each well was added 1 ml of 0.3 N NaOH. The plate was incubated in the 37° C. incubator for thirty minutes. Each well of 0.3 N NaOH was pipetted up and down three to four times and removed from the plate and the solution was placed in scintillation vials for counting. Scintillation fluid at four times the amount of sample was added to the vials (4 ml). Each vial was counted on the scintillation counter for one minute.

Row | Substance | binding in PC3 human prostate cancer cells [1] | uptake of 3H-thymidine, trend over 20 to 320 nM ([2]; FIG. 12) | 3H-Thymidine uptake ± SD ([2]; peptide 21 at 20 nM) [CPM] | 3H-Thymidine uptake ± SD ([2]; peptide 21 at 80 nM) [CPM] | 3H-Thymidine uptake ± SD ([2]; peptide 21 at 160 nM) [CPM] | 3H-Thymidine uptake ± SD ([2]; peptide 21 at 320 nM) [CPM]
1 | TTDPQMSKK [21ST, region of small toxin homologous to peptide 21, synthesized and biotinylated] | 225.26 % of background levels |  |  |  |  | 
2 | negative peptide (GKCYGPQCLC; Chlorotoxin; listed as Leiurus quinquestriatus) [reference compound] | 110 % of background levels |  |  |  |  | 
3 | TTDQQMTKK [21LQ, region of probable toxin LQH-8/6 homologous to peptide 21, synthesized and biotinylated] | 242.32 % of background levels |  |  |  |  | 
4 | Biotin-TTDHQMARKS [peptide 21] | 232.50 % of background levels | decreases in a does-dependent manner | 7795 ± 634 | 7412 ± 630 | 6983 ± 329 | 5782 ± 886
